{
  "source": "ChEMBL document CHEMBL3608227",
  "about": "“Synthesis and anti-tubercular activity of 2-nitroimidazooxazines with modification at the C-7 position as PA-824 analogs” (Bioorg Med Chem Lett, 2015)",
  "data": [
    {"tested_on": "Mycobacterium tuberculosis", "test": "Anti-tubercular activity against Mycobacterium tuberculosis", "type": "functional, organism-based", "units": {"IC50": "nM"}, "values": [
      {"smiles": "O=[N+]([O-])c1cn2c(n1)OC[C@H](OCc1ccc(OC(F)(F)F)cc1)C2", "IC50": 160},
      {"smiles": "O=[N+]([O-])c1cn2c(n1)OC[C@@H](OCc1ccc(OC(F)(F)F)cc1)C2", "note": "[PRETOMANID]", "IC50": 900}
    ]},
    {"tested_on": "Mycobacterium tuberculosis", "test": "Potency index, ratio of IC50 for PA-824 to IC50 for test compound against Mycobacterium tuberculosis", "type": "functional", "values": [
      {"smiles": "O=[N+]([O-])c1cn2c(n1)OC[C@H](OCc1ccc(OC(F)(F)F)cc1)C2", "Ratio IC50": 6}
    ]},
    {"tested_on": "Mycobacterium tuberculosis", "test": "Anti-tubercular activity against Mycobacterium tuberculosis H37Rv incubated at 37 degC by microscopy", "type": "functional", "units": {"MIC99": "µM"}, "values": [
      {"smiles": "O=[N+]([O-])c1cn2c(n1)O[C@@H](CCOCc1ccc(OC(F)(F)F)cc1)CC2", "MIC99": 0.078},
      {"smiles": "O=[N+]([O-])c1cn2c(n1)O[C@H](CCOCc1ccc(OC(F)(F)F)cc1)CC2", "MIC99": 0.39},
      {"smiles": "CC(C)(C)c1ccc(COCC[C@H]2CCn3cc([N+](=O)[O-])nc3O2)cc1", "MIC99": 0.39},
      {"smiles": "O=[N+]([O-])c1cn2c(n1)O[C@@H](CCOCc1ccc(Br)cc1)CC2", "MIC99": 0.39},
      {"smiles": "O=[N+]([O-])c1cn2c(n1)O[C@@H](CCOCc1ccc(Cl)cc1)CC2", "MIC99": 0.39},
      {"smiles": "O=[N+]([O-])c1cn2c(n1)O[C@@H](CCOCc1ccc(C(F)(F)F)cc1)CC2", "MIC99": 0.195},
      {"smiles": "O=[N+]([O-])c1cn2c(n1)O[C@@H](CCOCc1ccc(-c3ccccc3)cc1)CC2", "MIC99": 0.195},
      {"smiles": "O=[N+]([O-])c1cn2c(n1)O[C@@H](CCOc1ccc(OC(F)(F)F)cc1)CC2", "MIC99": 0.098},
      {"smiles": "O=[N+]([O-])c1cn2c(n1)O[C@@H](CCOc1ccccc1)CC2", "MIC99": 3.12},
      {"smiles": "O=[N+]([O-])c1cn2c(n1)O[C@@H](CCOc1ccc(Cl)cc1)CC2", "MIC99": 0.39},
      {"smiles": "O=[N+]([O-])c1cn2c(n1)O[C@@H](CCOc1ccc(C(F)(F)F)cc1)CC2", "MIC99": 0.195},
      {"smiles": "O=[N+]([O-])c1cn2c(n1)O[C@@H](CCOc1ccc(OCc3ccccc3)cc1)CC2", "MIC99": 0.078},
      {"smiles": "O=[N+]([O-])c1cn2c(n1)O[C@H](CCOc1ccc(OCc3ccccc3)cc1)CC2", "MIC99": 0.078},
      {"smiles": "O=[N+]([O-])c1cn2c(n1)O[C@@H](CCOc1ccc(-c3ccccc3)cc1)CC2", "MIC99": 0.078},
      {"smiles": "O=[N+]([O-])c1cn2c(n1)O[C@@H](CCOc1ccc(-c3ccc(F)cc3)cc1)CC2", "MIC99": 0.05},
      {"smiles": "O=C(OCC[C@H]1CCn2cc([N+](=O)[O-])nc2O1)OCc1ccc(OC(F)(F)F)cc1", "MIC99": 0.078},
      {"smiles": "O=C(OCC[C@@H]1CCn2cc([N+](=O)[O-])nc2O1)OCc1ccc(OC(F)(F)F)cc1", "MIC99": 1.56},
      {"smiles": "O=C(OCC[C@H]1CCn2cc([N+](=O)[O-])nc2O1)OCc1cccc(OC(F)(F)F)c1", "MIC99": 0.78},
      {"smiles": "O=C(OCC[C@H]1CCn2cc([N+](=O)[O-])nc2O1)OCc1ccccc1OC(F)(F)F", "MIC99": 0.39},
      {"smiles": "O=C(OCC[C@H]1CCn2cc([N+](=O)[O-])nc2O1)OCc1ccc(Cl)cc1", "MIC99": 0.195},
      {"smiles": "O=C(OCC[C@H]1CCn2cc([N+](=O)[O-])nc2O1)OCc1ccc(C(F)(F)F)cc1", "MIC99": 0.39},
      {"smiles": "O=C(Nc1ccc(Cl)cc1)OCC[C@H]1CCn2cc([N+](=O)[O-])nc2O1", "MIC99": 0.195},
      {"smiles": "O=C(Nc1ccc(-c2ccc(OC(F)(F)F)cc2)cc1)OCC[C@H]1CCn2cc([N+](=O)[O-])nc2O1", "MIC99": 0.195},
      {"smiles": "O=[N+]([O-])c1cn2c(n1)OC[C@@H](OCc1ccc(OC(F)(F)F)cc1)C2", "note": "[PRETOMANID]", "MIC99": 0.39}
    ]},
    {"tested_on": "Mycobacterium tuberculosis", "test": "Potency index, ratio of IC50 for PA-824 to IC50 for test compound against Mycobacterium tuberculosis H37Rv", "type": "functional", "values": [
      {"smiles": "O=[N+]([O-])c1cn2c(n1)O[C@@H](CCOCc1ccc(OC(F)(F)F)cc1)CC2", "Ratio IC50": 5},
      {"smiles": "O=[N+]([O-])c1cn2c(n1)O[C@@H](CCOCc1ccc(-c3ccccc3)cc1)CC2", "Ratio IC50": 2}
    ]}
  ]
}
